Data reported in ChEMBL document CHEMBL5678809, “Preclinical characterization of GLPG0634, a selective inhibitor of JAK1, for the treatment of inflammatory diseases” (J Immunol, 2013).
pIC50: −log10 of the molar value. Calls of active or inactive are those of the source. No cut-off for these calls is given here.

Columns and labels:
Aurora kinase B = Aurora kinase B (Homo sapiens, UniProt Q96GD4); experiment: Inhibition of AURORA-B (unknown origin)
[1] = target: Protein-tyrosine kinase 6 (Homo sapiens) (UniProt Q13882); experiment: Inhibition of BRK (unknown origin) at 1 uM relative to control
[2] = target: Tyrosine-protein kinase BTK (Homo sapiens, UniProt Q06187); experiment: Inhibition of BTK (unknown origin)
[3] = target: Mast/stem cell growth factor receptor Kit (Homo sapiens, UniProt P10721); experiment: Inhibition of cKIT (unknown origin)
[4] = target: Serine/threonine-protein kinase DCLK2 (Homo sapiens) (UniProt Q8N568); experiment: Inhibition of DCAMKL2 (unknown origin) at 1 uM relative to control
[5] = target: Dual specificity tyrosine-phosphorylation-regulated kinase 2 (Homo sapiens) (UniProt Q92630); experiment: Inhibition of DYRK2 (unknown origin) at 1 uM relative to control
[6] = target: Ephrin type-A receptor 8 (Homo sapiens) (UniProt P29322); experiment: Inhibition of EphA8 (unknown origin) at 1 uM relative to control
[7] = target: Tyrosine-protein kinase Fer (Homo sapiens) (UniProt P16591); experiment: Inhibition of Fer (unknown origin) at 1 uM relative to control
[8] = target: Vascular endothelial growth factor receptor 3 (Homo sapiens, UniProt P35916); experiment: Inhibition of Flt4 (unknown origin)
[9] = target: Insulin receptor-related protein (Homo sapiens) (UniProt P14616); experiment: Inhibition of IRR (unknown origin) at 1 uM relative to control
[10] = target: Tyrosine-protein kinase ITK/TSK (Homo sapiens) (UniProt Q08881); experiment: Inhibition of Itk (unknown origin) at 1 uM relative to control
[11] = target: Tyrosine-protein kinase Lck (Homo sapiens, UniProt P06239); experiment: Inhibition of LCK (unknown origin)
[12] = target: Serine/threonine-protein kinase STK11 (Homo sapiens) (UniProt Q15831); experiment: Inhibition of LKB1 (unknown origin) at 1 uM relative to control
[13] = target: Serine/threonine-protein kinase 10 (Homo sapiens) (UniProt O94804); experiment: Inhibition of LOK (unknown origin) at 1 uM relative to control
[14] = target: Mitogen-activated protein kinase kinase kinase kinase 4 (Homo sapiens, UniProt O95819); experiment: Inhibition of MAP4K4 (unknown origin)
[15] = target: Serine/threonine-protein kinase MARK1 (Homo sapiens) (UniProt Q9P0L2); experiment: Inhibition of MARK1 (unknown origin) at 1 uM relative to control
Misshapen-like kinase 1 = Misshapen-like kinase 1 (Homo sapiens, UniProt Q8N4C8); experiment: Inhibition of MINK1 (unknown origin) at 1 uM relative to control
Homo sapiens [16] = species: Homo sapiens; experiment: Inhibition of MRCK (unknown origin) at 1 uM relative to control
[17] = target: Muscle, skeletal receptor tyrosine-protein kinase (Homo sapiens) (UniProt O15146); experiment: Inhibition of MuSK (unknown origin) at 1 uM relative to control
[18] = target: Ribosomal protein S6 kinase beta-2 (Homo sapiens) (UniProt Q9UBS0); experiment: Inhibition of p70S6K2 (unknown origin) at 1 uM relative to control
[19] = target: Serine/threonine-protein kinase PAK 4 (Homo sapiens) (UniProt O96013); experiment: Inhibition of PAK4 (unknown origin) at 1 uM relative to control
Homo sapiens [20] = species: Homo sapiens; experiment: Inhibition of PDGFR (unknown origin) at 1 uM relative to control
Homo sapiens [21] = species: Homo sapiens; experiment: Inhibition of PKB (unknown origin) at 1 uM relative to control
[22] = target: cGMP-dependent protein kinase 1 (Homo sapiens) (UniProt Q13976); experiment: Inhibition of PKG1 (unknown origin) at 1 uM relative to control
[23] = target: Tyrosine-protein kinase receptor TYRO3 (Homo sapiens) (UniProt Q06418); experiment: Inhibition of Rse (unknown origin) at 1 uM relative to control
[24] = target: Ribosomal protein S6 kinase alpha-1 (Homo sapiens) (UniProt Q15418); experiment: Inhibition of Rsk1 (unknown origin) at 1 uM relative to control
[25] = target: Mitogen-activated protein kinase 11 (Homo sapiens) (UniProt Q15759); experiment: Inhibition of SAPK2b (unknown origin) at 1 uM relative to control
[26] = target: Mitogen-activated protein kinase 13 (Homo sapiens) (UniProt O15264); experiment: Inhibition of SAPK4 (unknown origin) at 1 uM relative to control
[27] = target: Proto-oncogene tyrosine-protein kinase Src (Homo sapiens) (UniProt P12931); experiment: Inhibition of Src (unknown origin) (1 to 530 residues) at 1 uM relative to control
[28] = target: Tyrosine-protein kinase SYK (Homo sapiens, UniProt P43405); experiment: Inhibition of SYK (unknown origin)
[29] = target: Mitogen-activated protein kinase kinase kinase 7 (Homo sapiens, UniProt O43318); experiment: Inhibition of TAK1 (unknown origin)
[30] = target: Serine/threonine-protein kinase TAO1 (Homo sapiens) (UniProt Q7L7X3); experiment: Inhibition of TAO1 (unknown origin) at 1 uM relative to control
[31] = target: Serine/threonine-protein kinase ULK3 (Homo sapiens) (UniProt Q6PHR2); experiment: Inhibition of ULK3 (unknown origin) at 1 uM relative to control
[32] = target: Tyrosine-protein kinase Mer (Homo sapiens) (UniProt Q12866); experiment: Inhibition of Mer (unknown origin) at 1 uM relative to control
[33] = target: Receptor-type tyrosine-protein kinase FLT3 (Homo sapiens) (UniProt P36888); experiment: Inhibition of Flt3 (unknown origin) at 1 uM relative to control
[34] = Cmax in CD-1 mouse at 5 mg/kg, po measured upto 24 hrs by LC-MS analysis; assay type: ADME, organism-based; conditions: in vivo
[35] = AUC (0 to 24 hrs) in CD-1 mouse at 1 mg/kg, iv measured upto 8 hrs by LC-MS analysis; assay type: ADME, organism-based; conditions: in vivo
[36] = Half life in CD-1 mouse at 5 mg/kg, po measured upto 24 hrs by LC-MS analysis; assay type: ADME, organism-based; conditions: in vivo
[37] = Volume of distribution at steady state in CD-1 mouse at 1 mg/kg, iv measured upto 8 hrs by LC-MS analysis; assay type: ADME, organism-based; conditions: in vivo, read-out: Vdss
[38] = Oral bioavailability in Sprague-Dawley rat at 5 mg/kg measured upto 24 hrs by LC-MS analysis; assay type: ADME, organism-based; conditions: in vivo
Mus musculus [39] = experiment: Antiarthritic activity against collagen-induced arthritis DBA/1J mouse model assessed as reduction in TNFalpha expression at 50 mg/kg, po measured for 4 hrs; assay type: functional, organism-based
Mus musculus [40] = experiment: Antiarthritic activity against collagen-induced arthritis DBA/1J mouse model assessed as reduction in MX2 expression in paw at 50 mg/kg, po measured for 2 weeks by RT-PCR analysis; assay type: functional, organism-based
Mus musculus [41] = experiment: Antiarthritic activity against collagen-induced arthritis DBA/1J mouse model assessed as MCP-3 level in serum at 50 mg/kg, po measured for 4 hrs by luminex analysis (reference value: 224 +/- 15.3 ng/ml); assay type: functional

Chain of Ribosomal protein S6 kinase beta-2 (Homo sapiens) (Q9UBS0 whole entry): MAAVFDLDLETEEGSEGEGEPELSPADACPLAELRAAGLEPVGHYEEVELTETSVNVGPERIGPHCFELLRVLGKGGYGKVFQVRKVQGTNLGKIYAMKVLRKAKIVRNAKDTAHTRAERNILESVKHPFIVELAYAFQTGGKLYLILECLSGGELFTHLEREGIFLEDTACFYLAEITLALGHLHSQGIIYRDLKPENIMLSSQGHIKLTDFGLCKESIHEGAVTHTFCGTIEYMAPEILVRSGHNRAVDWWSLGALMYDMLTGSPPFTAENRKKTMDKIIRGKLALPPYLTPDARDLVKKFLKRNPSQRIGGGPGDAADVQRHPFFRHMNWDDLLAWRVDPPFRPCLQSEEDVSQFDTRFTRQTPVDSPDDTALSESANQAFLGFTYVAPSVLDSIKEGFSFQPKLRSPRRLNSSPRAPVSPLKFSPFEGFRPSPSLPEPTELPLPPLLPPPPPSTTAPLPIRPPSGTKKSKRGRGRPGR
Chain of Serine/threonine-protein kinase MARK1 (Homo sapiens) (Q9P0L2 whole entry, looked up): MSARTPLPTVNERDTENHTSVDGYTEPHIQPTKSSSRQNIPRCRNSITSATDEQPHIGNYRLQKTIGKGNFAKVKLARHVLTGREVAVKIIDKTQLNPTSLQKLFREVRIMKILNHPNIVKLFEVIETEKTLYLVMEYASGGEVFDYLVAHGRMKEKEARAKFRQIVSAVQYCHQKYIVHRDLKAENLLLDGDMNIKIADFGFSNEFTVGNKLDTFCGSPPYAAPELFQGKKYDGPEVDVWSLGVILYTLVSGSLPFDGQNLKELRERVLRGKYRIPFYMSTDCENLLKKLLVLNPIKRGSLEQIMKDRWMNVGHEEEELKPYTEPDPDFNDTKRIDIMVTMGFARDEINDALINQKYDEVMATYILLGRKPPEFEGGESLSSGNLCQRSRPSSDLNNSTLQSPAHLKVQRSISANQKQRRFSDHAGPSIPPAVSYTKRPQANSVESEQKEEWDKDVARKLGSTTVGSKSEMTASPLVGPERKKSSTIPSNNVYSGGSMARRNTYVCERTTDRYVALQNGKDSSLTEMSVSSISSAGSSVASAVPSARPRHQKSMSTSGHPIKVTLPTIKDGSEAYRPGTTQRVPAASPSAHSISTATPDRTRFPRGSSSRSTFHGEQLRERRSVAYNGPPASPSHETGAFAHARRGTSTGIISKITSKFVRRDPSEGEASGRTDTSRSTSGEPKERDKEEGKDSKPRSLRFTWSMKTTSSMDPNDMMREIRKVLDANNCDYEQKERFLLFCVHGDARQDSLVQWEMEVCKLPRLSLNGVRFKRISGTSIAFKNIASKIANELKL
Chain of Ephrin type-A receptor 8 (Homo sapiens) (P29322 whole entry): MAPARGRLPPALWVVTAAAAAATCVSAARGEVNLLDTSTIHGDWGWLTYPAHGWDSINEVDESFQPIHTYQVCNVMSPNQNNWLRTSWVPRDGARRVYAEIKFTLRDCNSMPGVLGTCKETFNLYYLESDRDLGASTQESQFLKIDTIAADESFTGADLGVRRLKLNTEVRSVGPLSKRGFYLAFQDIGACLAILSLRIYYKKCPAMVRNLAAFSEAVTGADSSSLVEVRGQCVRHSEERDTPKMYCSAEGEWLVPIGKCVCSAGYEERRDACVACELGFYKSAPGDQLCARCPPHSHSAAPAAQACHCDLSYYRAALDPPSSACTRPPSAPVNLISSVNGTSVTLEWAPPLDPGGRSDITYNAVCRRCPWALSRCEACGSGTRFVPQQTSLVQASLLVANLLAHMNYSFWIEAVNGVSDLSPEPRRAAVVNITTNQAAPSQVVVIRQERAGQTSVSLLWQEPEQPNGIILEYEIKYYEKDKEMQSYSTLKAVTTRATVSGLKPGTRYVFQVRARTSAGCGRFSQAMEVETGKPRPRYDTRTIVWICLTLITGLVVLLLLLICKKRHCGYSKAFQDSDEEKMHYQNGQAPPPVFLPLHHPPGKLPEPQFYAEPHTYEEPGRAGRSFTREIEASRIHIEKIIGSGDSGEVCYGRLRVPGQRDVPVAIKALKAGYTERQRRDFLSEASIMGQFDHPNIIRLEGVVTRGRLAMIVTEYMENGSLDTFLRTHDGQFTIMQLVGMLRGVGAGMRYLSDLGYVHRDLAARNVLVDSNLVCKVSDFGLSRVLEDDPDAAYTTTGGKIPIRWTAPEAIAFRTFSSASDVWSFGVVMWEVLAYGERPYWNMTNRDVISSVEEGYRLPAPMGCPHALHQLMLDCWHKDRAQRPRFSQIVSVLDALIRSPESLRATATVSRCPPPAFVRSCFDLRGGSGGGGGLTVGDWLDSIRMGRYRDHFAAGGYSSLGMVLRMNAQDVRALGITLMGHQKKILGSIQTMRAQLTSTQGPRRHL
Chain of Dual specificity tyrosine-phosphorylation-regulated kinase 2 (Homo sapiens) (Q92630 whole entry): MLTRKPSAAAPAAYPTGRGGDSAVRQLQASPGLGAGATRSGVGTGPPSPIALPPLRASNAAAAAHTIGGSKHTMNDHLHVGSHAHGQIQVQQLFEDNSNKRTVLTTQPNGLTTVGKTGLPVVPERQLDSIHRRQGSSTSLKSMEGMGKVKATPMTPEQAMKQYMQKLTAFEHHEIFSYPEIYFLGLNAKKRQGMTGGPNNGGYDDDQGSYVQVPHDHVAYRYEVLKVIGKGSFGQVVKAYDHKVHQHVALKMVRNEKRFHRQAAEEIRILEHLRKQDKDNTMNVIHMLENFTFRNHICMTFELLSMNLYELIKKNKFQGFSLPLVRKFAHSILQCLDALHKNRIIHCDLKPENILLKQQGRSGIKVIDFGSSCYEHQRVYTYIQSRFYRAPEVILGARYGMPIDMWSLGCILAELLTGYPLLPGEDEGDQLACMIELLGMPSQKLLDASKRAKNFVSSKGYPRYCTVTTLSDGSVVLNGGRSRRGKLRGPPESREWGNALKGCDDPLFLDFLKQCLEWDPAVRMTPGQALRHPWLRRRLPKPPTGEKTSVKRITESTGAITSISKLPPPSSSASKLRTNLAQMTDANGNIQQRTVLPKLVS
Chain of cGMP-dependent protein kinase 1 (Homo sapiens) (Q13976 whole entry): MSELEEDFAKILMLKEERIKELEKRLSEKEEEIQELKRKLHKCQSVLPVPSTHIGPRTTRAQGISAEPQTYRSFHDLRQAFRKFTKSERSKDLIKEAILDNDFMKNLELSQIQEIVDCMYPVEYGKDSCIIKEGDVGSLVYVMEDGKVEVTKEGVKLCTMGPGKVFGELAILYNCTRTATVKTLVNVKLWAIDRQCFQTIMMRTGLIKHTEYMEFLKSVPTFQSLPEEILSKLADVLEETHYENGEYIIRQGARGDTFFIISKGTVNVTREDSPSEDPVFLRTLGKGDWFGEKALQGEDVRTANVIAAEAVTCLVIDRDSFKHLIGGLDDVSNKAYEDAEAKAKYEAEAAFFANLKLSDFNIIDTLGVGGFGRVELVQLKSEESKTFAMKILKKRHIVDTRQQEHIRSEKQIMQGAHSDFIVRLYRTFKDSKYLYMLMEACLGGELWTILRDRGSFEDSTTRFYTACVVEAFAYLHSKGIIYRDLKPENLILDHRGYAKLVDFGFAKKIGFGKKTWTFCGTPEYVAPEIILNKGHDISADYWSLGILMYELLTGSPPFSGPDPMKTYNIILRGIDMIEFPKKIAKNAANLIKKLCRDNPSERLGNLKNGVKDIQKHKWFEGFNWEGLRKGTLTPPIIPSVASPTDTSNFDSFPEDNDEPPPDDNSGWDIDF
Chain of Mast/stem cell growth factor receptor Kit (P10721 whole entry): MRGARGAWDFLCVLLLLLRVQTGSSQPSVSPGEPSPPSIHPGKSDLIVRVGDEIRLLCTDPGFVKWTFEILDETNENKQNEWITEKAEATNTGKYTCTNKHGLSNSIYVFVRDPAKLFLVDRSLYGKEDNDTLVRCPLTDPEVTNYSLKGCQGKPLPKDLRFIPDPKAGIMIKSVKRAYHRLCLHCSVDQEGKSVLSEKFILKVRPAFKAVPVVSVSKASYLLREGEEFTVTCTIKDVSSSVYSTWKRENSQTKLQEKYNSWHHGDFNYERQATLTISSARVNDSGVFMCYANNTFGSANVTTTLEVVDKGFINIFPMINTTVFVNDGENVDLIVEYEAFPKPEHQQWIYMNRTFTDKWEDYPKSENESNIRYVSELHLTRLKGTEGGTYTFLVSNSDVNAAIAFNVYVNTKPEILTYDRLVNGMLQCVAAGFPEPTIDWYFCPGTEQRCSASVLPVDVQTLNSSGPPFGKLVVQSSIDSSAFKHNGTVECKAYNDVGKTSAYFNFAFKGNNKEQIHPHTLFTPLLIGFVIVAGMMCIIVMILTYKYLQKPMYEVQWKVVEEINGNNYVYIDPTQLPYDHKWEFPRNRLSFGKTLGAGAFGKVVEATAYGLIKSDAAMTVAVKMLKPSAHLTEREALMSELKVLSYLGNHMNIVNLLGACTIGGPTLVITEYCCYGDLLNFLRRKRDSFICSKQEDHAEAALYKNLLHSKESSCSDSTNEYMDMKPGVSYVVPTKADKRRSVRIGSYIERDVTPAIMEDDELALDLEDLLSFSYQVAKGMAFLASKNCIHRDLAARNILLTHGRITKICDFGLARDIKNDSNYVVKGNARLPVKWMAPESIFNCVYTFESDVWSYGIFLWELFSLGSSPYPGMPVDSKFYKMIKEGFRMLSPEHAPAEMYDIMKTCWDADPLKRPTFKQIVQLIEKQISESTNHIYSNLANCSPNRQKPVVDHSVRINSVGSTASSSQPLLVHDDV
Chain of Mitogen-activated protein kinase 11 (Homo sapiens) (Q15759 whole entry): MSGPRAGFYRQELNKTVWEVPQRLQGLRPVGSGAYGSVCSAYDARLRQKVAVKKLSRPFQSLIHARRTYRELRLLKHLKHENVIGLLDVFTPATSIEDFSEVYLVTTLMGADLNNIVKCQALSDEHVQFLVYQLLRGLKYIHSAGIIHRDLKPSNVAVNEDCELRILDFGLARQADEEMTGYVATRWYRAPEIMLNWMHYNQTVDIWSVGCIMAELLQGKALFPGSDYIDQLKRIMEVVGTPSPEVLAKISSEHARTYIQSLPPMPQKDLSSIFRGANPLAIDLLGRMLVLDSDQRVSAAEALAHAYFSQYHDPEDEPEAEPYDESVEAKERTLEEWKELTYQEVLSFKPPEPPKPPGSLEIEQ

Work on `O=C(Nc1nc2cccc(-c3ccc(CN4CCS(=O)(=O)CC4)cc3)n2n1)C1CC1` [FILGOTINIB] yielded a pIC50 (Aurora kinase B) of under 5.00, an inhibition [1] of -2% and a pIC50 [2] of under 5.00. The pIC50 [3] was under 5.00, the inhibition [4] was 12% and the inhibition [5] was -1%. The inhibition [6] was 1%, the inhibition [7] was -5% and the pIC50 [8] was 6.56. It also gave an inhibition [9] of -5%, an inhibition [10] of -4% and a pIC50 [11] of under 5.00. For the same compound, the inhibition [12] was -5%, the inhibition [13] was -3% and the pIC50 [14] was under 5.00. The inhibition [15] was 7%, the inhibition (Misshapen-like kinase 1) was -2% and the inhibition (Homo sapiens [16]) was -3%. For the same compound, the inhibition [17] was -3%, the inhibition [18] was -6% and the inhibition [19] was 0%. It also gave an inhibition (Homo sapiens [20]) of 2%, an inhibition (Homo sapiens [21]) of -3% and an inhibition [22] of -1%. The inhibition [23] was 4%, the inhibition [24] was 2% and the inhibition [25] was -4%. For the same compound, the inhibition [26] was -10%, the inhibition [27] was 32% and the pIC50 [28] was under 5.00. For the same compound, the pIC50 [29] was under 5.00, the inhibition [30] was -4% and the inhibition [31] was 4%. For the same compound, the inhibition [32] was 44%, the inhibition [33] was 58% and the Cmax [34] was 920 ng/mL. It also gave an AUC [35] of 347 ng·h/mL, a half-life [36] of 102 min and a Vd [37] of 6 L/kg. For the same compound, the bioavailability [38] was 45%, the Activity (Mus musculus [39]) was “Active” and the Activity (Mus musculus [40]) was “Active”. It also gave an Activity (Mus musculus [41]) of 153.8 ng/mL.
